# Reference: patent US9624266B2, “Brachiatin D and process for production thereof” (COUNCIL OF SCIENTIFIC & INDUSTRIAL RESEARCH, priority 2013, dated 2017)
# Several values for one entry are separate records, joined by “and”; a condition that tells them apart may be missing. Identical values can stand only once. Non-standard residues stand in square brackets, D forms with d. Residues, ends and D or L forms follow the SMILES beside them. *: point of attachment. Aib = CC(C)(N)C(=O)O; X1 = CCC(C)C(CO)N*
# Legend:
# THP-1 = experiment: cells; assay type: cell-based, human; details: for % growth inhibition: THP-1, 20 μM, 20 µM
# Method: (§1) For Cytotoxic assay, the MTT assay is useful for measuring the effect of a wide range of compounds on the in vitro growth of either normal or cancer cell lines. The assay was set up in a 96-well, flat-bottomed polystyrene microtiter plate. 3-5000 cancer cells were suspended per well in appropriate growth medium, and the cells were added in duplicate wells (triplicates were preferred). It was preferable to add the cells to the required number of wells in the plate prior to adding the peptaibol. After the cells were added to the plate, it was placed on an incubator for overnight incubation. After overnight incubation, the peptaibol was added at defined concentrations of 10, 20 and 50 μM to each set of duplicate wells and incubated for 48 hrs in CO2 incubator. The peptaibol was dissolved in dimethyl sulfoxide (DMSO) for the final addition. After 48 hr incubation, the MTT stock solution (2.5 μg/ml) was diluted with an equal volume of tissue culture medium and 20 μl of this solution was added directly to each well with a multichannel pipette. The plates were returned to the incubator for a period of at least 4 h. After 4 hr incubation, the plates were centrifuged at 1000 rpm for 10 min at ambient temperature, followed by inversion of the plates and blotting of excess medium. 150 μl of working DMSO was added to solubilize the MTT formazan product. A standard micro plate reader with adjustable wavelength across the visible spectrum was used. The OD values at 570 nm obtained for each set of triplicates corresponding to a specific concentration of a peptaibol was then transferred into a spreadsheet program.
# (§2) Cytotoxicity assay was performed on a panel of cancer cell lines using fraction 4 (HF-4) as a test material. In order to determine their effect on cell proliferation, A-549 (lung cell line), HEP-2 (liver cell line), MCF-7 (breast cell line), monkey normal cell line (CV-1), OVCAR-5 (ovary cell line) and THP-1 (leukemia cell line) were treated at indicated concentration of 50 μM for 48 h. […] 5-flurouracil and adriyamycin were used as the positive controls; 5-flurouracil inhibited the growth of lung and leukemia cancer cell lines upto 75% and 83% respectively. Moreover adriyamycin used at 1 μM could inhibit the proliferation of MCF-7 cells upto 73%.
# (§3) Cytotoxicity assay based on MTT was performed on a panel of cancer cell lines using brachiatin D as a test material. […] 5-flurouracil and adriyamycin were used as the positive controls; 5-flurouracil inhibited the growth of lung and leukemia cancer cell lines upto 73%, […] 88% respectively. Adriyamycin used at 1 μM could inhibit the proliferation of MCF-7 cells upto 77%.
# A-549 = experiment: cells; assay type: cell-based, human; details: for % growth inhibition: A-549, 20 μM, 20 µM; for % age growth inhibition: A-549, 10 μM, 10 µM
# Method: as §1, §2, §3
# HOP-62 = experiment: MTT cytotoxicity assay, HOP-62 lung cell line; assay type: cell-based, human
# Method: as §1, §3
# MCF-7 = experiment: MTT cytotoxicity assay, MCF-7 breast cell line; assay type: cell-based, human; details: for % growth inhibition: MCF-7, 1 μM
# Method: as §1
# Cytotoxicity assay was performed on a panel of cancer cell lines using fraction 4 (HF-4) as a test material. In order to determine their effect on cell proliferation, A-549 (lung cell line), HEP-2 (liver cell line), MCF-7 (breast cell line), monkey normal cell line (CV-1), OVCAR-5 (ovary cell line) and THP-1 (leukemia cell line) were treated at indicated concentration of 50 μM for 48 h. […]
# lymphocyte proliferation = experiment: Lymphocyte proliferation assay (splenocytes, MTT); assay type: cell-based, mice; details: concentration range 0.001 μM-10 μM
# Text: For Lymphocyte Proliferation Assay, the organic crude extract and then the purified peptaibol was taken for lymphocyte proliferation assay to check their activity by the following procedure. The mice spleen was collected from a live animal after sacrificing it under aseptic conditions in HBSS. The spleen was then minced using a pair of scissors and passed through a fine steel mesh to obtain a homogeneous cell suspension and the erythrocytes were lysed with ammonium chloride (0.8%, w/v). After centrifugation (380×g at 4° C. for 10 min), the pelleted cells were washed three times with PBS and resuspended in complete medium [RPMI 1640 supplemented with 12 mM HEPES (pH 7.1), 0.05 mM 2-mercaptoethanol, 100 IU/mL penicillin, 100 µg/mL streptomycin and 10% FCS]. The cell number was counted with a haemocytometer by the trypan blue dye exclusion technique. Cell viability exceeded 95%.
# Splenocytes (2×10^6 cells) were then seeded into a 96-well flat-bottom microtiter plate in 100 μl complete medium. Thereafter, variable doses of the test material along with LPS (1 μg/ml) to stimulate B cell proliferation were added giving a final volume of 200 μl. Test materials used in this assay were variable doses of the purified peptaibol (0.001, 0.01 and 0.1 μM). […] 200 μl of DMSO (192 μl DMSO with 8 μl IN HCl) was added to each well, and the absorbance was determined in an ELISA reader at 570 nm after 15 min. […]
# IL-6 = IL-6 in LPS stimulated cell culture supernatant (ELISA); assay type: cell-based, mouse; details: LPS 1 μg/ml, 24 h
# Method: (§4) For the estimation of pro-inflammatory cytokines (TNF-α, IL-1β and IL-6) in spleen cell culture supernatant, the splenocytes (2×10^6 cells) were seeded into a 96-well flat-bottom microtiter plate in 100 μl complete medium [RPMI 1640 supplemented with 12 mM HEPES (pH 7.1), 0.05 mM 2-mercaptoethanol, 100 IU/mL penicillin, 100 μg/mL streptomycin and 10% FCS]. Thereafter, variable does of purified peptaibol (brachiatin D) (0.001, 0.01 and 0.1 μM) were added giving a final volume of 200 μl. After subsequent stimulation with 1 μg/ml LPS for 24 h, the supernatants were harvested. The concentrations of TNF-α, IL-1β and IL-6 in culture supernatants were measured using mouse TNF-α, IL-1β and IL-6 ELISA kits (R&D Systems, USA), as per the instructions of the manufacturer
# as §4, with “For” for “For the”, “medium.” for “medium [RPMI 1640 supplemented with 12 mM HEPES (pH 7.1), 0.05 mM 2-mercaptoethanol, 100 IU/mL penicillin, 100 μg/mL streptomycin and 10% FCS].”, “brachiatin D” for “peptaibol (brachiatin D)”, “manufacturer. […]” for “manufacturer”
# MiaPaCa-2 = experiment: MTT cytotoxicity assay, MiaPaCa-2 pancreatic cell line; assay type: cell-based, human; details: MiaPaCa-2, 10 μM
# Method: as §1, with “150 μl of working DMSO was added to solubilize the MTT formazan product.” left out, “The OD values at 570 nm obtained for each set of triplicates corresponding to a specific concentration of a peptaibol was then transferred into a spreadsheet program.” left out
# PC-3 = experiment: MTT cytotoxicity assay, PC-3 prostate cell line; assay type: cell-based, human; details: PC-3, 10 μM
# Method: as §1, with “150 μl of working DMSO was added to solubilize the MTT formazan product.” left out, “The OD values at 570 nm obtained for each set of triplicates corresponding to a specific concentration of a peptaibol was then transferred into a spreadsheet program.” left out
# NO = experiment: Inhibition of nitric oxide (nitrite) in LPS treated macrophages; assay type: cell-based, mouse
# Method: NO is a short-lived molecule. […] Large quantity of nitrite is produced by macrophage when stimulated with LPS. But when cells were treated with brachiatin D, it was observed that brachiatin D inhibited LPS stimulated production of nitrite (p<0.001 at 0.001 μM dose).
# IL-1β = IL-1β in LPS stimulated cell culture supernatant (ELISA); assay type: cell-based, mouse; details: LPS 1 μg/ml, 24 h
# Method: as §4
# as §4, with “For” for “For the”, “medium.” for “medium [RPMI 1640 supplemented with 12 mM HEPES (pH 7.1), 0.05 mM 2-mercaptoethanol, 100 IU/mL penicillin, 100 μg/mL streptomycin and 10% FCS].”, “brachiatin D” for “peptaibol (brachiatin D)”, “manufacturer. […]” for “manufacturer”
# TNF-α = TNF-α in LPS stimulated cell culture supernatant (ELISA); assay type: cell-based, mouse; details: LPS 1 μg/ml, 24 h, dose dependent, 0.001-0.1 dose range
# Method: as §4
# as §4, with “For” for “For the”, “medium.” for “medium [RPMI 1640 supplemented with 12 mM HEPES (pH 7.1), 0.05 mM 2-mercaptoethanol, 100 IU/mL penicillin, 100 μg/mL streptomycin and 10% FCS].”, “brachiatin D” for “peptaibol (brachiatin D)”, “manufacturer. […]” for “manufacturer”
smiles,measurement,setting,value
"O=c1[nH]cc(F)c(=O)[nH]1 [5-Fluorouracil, reference compound]",inhibition at 20 µM,"THP-1; Homo sapiens, THP-1, THP-1, 20 μM, read-out: % growth inhibition",≤ 83%
same,% growth inhibition,THP-1,83% and 88%
same,% growth inhibition,A-549,75% and 73%
same,inhibition at 20 µM,"A-549; Homo sapiens, A549, A-549, 20 μM, read-out: % growth inhibition",≤ 75%
same,% age growth inhibition,"HOP-62; HOP-62, 20 μM, 20 µM",81%
same,inhibition at 20 µM,"HOP-62; Homo sapiens, HOP-62, HOP-62, 20 μM, read-out: % age growth inhibition",≤ 81%
COc1cccc2c1C(=O)c1c(O)c3c(c(O)c1C2=O)C[C@@](O)(C(=O)CO)C[C@@H]3O[C@H]1C[C@H](N)[C@H](O)[C@H](C)O1 [Adriyamycin],% growth inhibition,MCF-7,73%
same,% growth inhibition,MCF-7; 1 µM,≤ 73%
"CCC(C)C(CO)NC(=O)C1CCCN1C(=O)C(CC(C)C)NC(=O)C(CC(N)=O)NC(=O)C(C)(C)NC(=O)C1CCCN1C(=O)C(C)(C)NC(=O)C(CC(C)C)NC(=O)C(C)(C)NC(=O)C(CC(N)=O)NC(=O)C(C)(C)NC(C)=O (stereo not drawn) [Brachiatin D, AcAib-Asn-Aib-Leu-Aib-Pro-Aib-Asn-Leu-Pro-Ileuol] (Ac-[Aib]N[Aib]L[Aib]P[Aib]NLP-X1; configuration not given here)",activity against lymphocyte proliferation,lymphocyte proliferation,good activity
same,% age growth inhibition,"MCF-7; MCF-7, 10 μM",100%
same,effect on LPS induced IL-6,IL-6,inhibited
same,% age growth inhibition,MiaPaCa-2,100%
same,% age growth inhibition,PC-3,100%
same,LPS stimulated production of nitrite,"NO; 0.001 μM dose, p<0.001",inhibited
same,NO production,"NO; 0.1 μM, p<0.05",Marginal increase
same,% age growth inhibition,"THP-1; THP-1, 10 μM",56%
same,% growth inhibition,THP-1,77%
same,% growth inhibition,THP-1; listed as brachiatin D,> 75%
same,% age growth inhibition,A-549,63%
same,% age growth inhibition,A-549; listed as brachiatin D,≤ 63%
same,% growth inhibition,A-549,96%
same,% growth inhibition,A-549; listed as brachiatin D,> 95%
same,effect on LPS induced IL-1β,IL-1β,inhibited
same,sensitivity of the cell line to cytotoxic effects,HOP-62; HOP-62,much resistance
same,% age growth inhibition,"HOP-62; HOP-62, 10 μM",21%
same,% age growth inhibition,"HOP-62; HOP-62, 20 μM",35%
same,inhibition of TNF-α production,TNF-α,up to 42%
